According to patent US12678438B2, “Treatment of cancer with CDK inhibitors” (THE TRUSTEES OF THE UNIVERSITY OF PENNSYLVANIA, priority 2019, dated 2026):

How the values were obtained:
p-MED1 (p-T1457 MED1) = test: Immunoblot of p-MED1 in AR-positive PCa cell lines (VCaP, LNCaP, 22RV1); assay type: cell-based, human
Protocol: Cell lysates were prepared with RIPA buffer (Boston Bioproducts, BP-115DG)-10 mM Tris-HCl pH 7.5, 1 mM EDTA, 400 mM NaCl, 0.5% NP-40 and 1 mM DTT, supplemented with protease inhibitor cocktail (Pierce, A32965) and phosphatase inhibitor (Thermo, 1861280). For immunoblotting 200 μg total protein extract was boiled in sample buffer and 15-25 μg aliquots were separated by SDS-PAGE and transferred onto Polyvinylidene Difluoride membrane (GE Healthcare, IPVH00010). The membrane was incubated for one hour in blocking buffer [Tris-buffered saline, 0.1% Tween (TBS-T), 5% nonfat dry milk followed by overnight incubation on a rocker at 4° C. with the primary antibody. Following a wash with TBS-T, the blot was incubated with horseradish peroxidase-conjugated secondary antibody for 2 hrs on a rocker at room temperature. The blots were washed again and signals were visualized using enhanced chemiluminescence system as per manufacturer's protocol (GE Healthcare) or Kwik Quant Imager (Kindle Biosciences). Primary antibodies used in the immunoblotting (IB), immunoprecipitation (IP), and Chromatin Immunoprecipitation sequencing (ChIP-seq) assays are as follows: AR_IP, IB, ChIP-Seq (Millipore, 06-680); pS81-AR_IB (Millipore, 07-1375-EMD); RNA Pol II_IP, IB (Abcam, ab5408); ERG_IB (Abcam, a92513); PSA_IB (Dako, A0562); H3-acetyl K27_IP, IB, ChIP Seq (Abcam, ab32104) cPARP_IB (Cell Signaling Technology, 9541s); Cleaved caspase-3_IB (Cell Signaling Technology, 9664t); CDK7_IP, IB (Cell Signaling Technology, 2916s); CDK9_IP, IB (Cell Signaling Technology, 2316s); CDK12_IB (Cell Signaling Technology, 11973S); CDK13_IB (Sigma Cat. #ABE1860); Cyclin H_IB (Cell Signaling Technology, 2927T); HA_IP, IB (Cell Signaling Technology, 2367s); ERK1/2_IP, IB (Cell Signaling Technology, 9107s); phospho-ERK1/2_IB (Cell Signaling Technology, 9101s); phospho-Threonine_IB (Cell Signaling Technology, 9381s); PP2A alpha_IB (Abcam, ab32104); phospho-MED1_IB (Abcam, ab60950); Anti-GST_IB (Cell Signaling Technology, 2624); Anti-AKT_IB (Cell Signaling Technology, 9272); Anti-phosphoAKT_IB(Cell Signaling Technology, 4060); Anti-phospho-AR (Ser-515) _IB (Abeam, ab128250); Anti-RNA Pol 'LIB (Abeam, ab5408); Anti-phospho-pol II (Ser-5)_IB (Abeam, ab ab5095); Anti-phospho-CDK7 (Tlu-170) _IB (Millipore, ABS567); MED1_IP, IB, ChIP Seq (Bethyl, abA300-793A), Ki67_IHC (Cell Signaling Technology, 9661), and GAPDH (14C10), IB (Cell Signaling Technology, 3683s) for loading control.

[1] = system: AR target proteins (ERG, MYC, PSA); test: Immunoblot of AR target proteins; assay type: cell-based, human
Protocol: Cell lysates were prepared with RIPA buffer (Boston Bioproducts, BP-115DG)-10 mM Tris-HCl pH 7.5, 1 mM EDTA, 400 mM NaCl, 0.5% NP-40 and 1 mM DTT, supplemented with protease inhibitor cocktail (Pierce, A32965) and phosphatase inhibitor (Thermo, 1861280). For immunoblotting 200 μg total protein extract was boiled in sample buffer and 15-25 μg aliquots were separated by SDS-PAGE and transferred onto Polyvinylidene Difluoride membrane (GE Healthcare, IPVH00010). The membrane was incubated for one hour in blocking buffer [Tris-buffered saline, 0.1% Tween (TBS-T), 5% nonfat dry milk followed by overnight incubation on a rocker at 4° C. with the primary antibody. Following a wash with TBS-T, the blot was incubated with horseradish peroxidase-conjugated secondary antibody for 2 hrs on a rocker at room temperature. The blots were washed again and signals were visualized using enhanced chemiluminescence system as per manufacturer's protocol (GE Healthcare) or Kwik Quant Imager (Kindle Biosciences). […]

VCaP CRPC xenograft = test: VCaP CRPC mouse xenograft; assay type: in vivo
Protocol: In vivo efficacy studies were performed in accordance with protocols approved by the Institutional Animal Care and Use Committee (IACUC) at the University of Pennsylvania and in compliance with all regulatory standards. Four to five-week-old male NOD SCID gamma mice (Jackson Lab, 005557) were procured from Jackson Laboratory. In the VCaP experiment, 2×10^6 VCaP prostate cancer cells suspended in 80 μL of RPMI-1640 with 50% Matrigel (BD Biosciences) were implanted subcutaneously into the dorsal flank of the mice. The animals were castrated when the tumor volumes reached approximately 150 mm^3. […] Tumor growth was recorded using digital calipers and tumor volumes were estimated using the formula (π/6) (L×W^2), where L=length and W=width of tumor. Body weight during the study was also monitored. At the end of the treatment regimen the mice were sacrificed and were extracted for further analysis.
Xenograft tumor pieces were fixed in 4% of formaldehyde for 48 h and paraffin embedded. Paraffin embedded sections from the tumors of treated and untreated mice were deparaffinized, rehydrated and subjected to epitope retrieval stained with a phospho-MED1 antibody (1:4000/1:2000), anti-PSA antibody (1:1000), anti-Ki67 (1:500), or anti-cleaved caspase3 antibody (1:1000) followed by peroxidase-based detection and counterstaining with hematoxylin using the Leica Bond Rxm system. Photographs were taken on a Leica DMI6000B inverted light and fluorescent microscope with a 20× objective. images were assessed and quantified in ImageJ.
Whole blood of the xenograft bearing mice was collected with heparinized blood collecting tubes (Fisherbrand, 02-668-10), and cells were removed from plasma by centrifugation for 10 minutes at 2,000 g at 4° C. The plasma was used to detect PSA levels using the Human PSA ELBA Kit (Abeam, ab113327) following the manufacturer's protocol. In brief, we diluted the mice plasma ten time with Assay Diluent A, and LNCaP culturing media was used as a positive control. Serially diluted standards were used for quantification. 100 μL of each sample was loaded on the human PSA specific antibody coated 96-well plate in duplicates and the plate was incubated overnight at 4° C. to allow the PSA presented in samples to bind to the wells. The wells were then washed, and biotinylated anti-Human PSA antibody was added. After washing away unbound biotinylated antibody, HRP-conjugated streptavidin was added into the wells. The wells were again washed and developed with a TMB substrate solution followed by the addition of the stop solution and colorimetric measurement of the intensity at 450 nm. The concentrations of the PSA in the samples were calculated based on the standard curve.

[2] = residual tumors, 10 mg/kg b.i.d., four weeks

For `CN(C)C/C=C/C(=O)Nc1ccc(C(=O)Nc2cccc(Nc3ncc(Cl)c(-c4c[nH]c5ccccc45)n3)c2)cc1` [THZ1], the “phosphorylation at Ser5 of RNA Pol II” value (p-MED1 (p-T1457 MED1); VCaP and LNCaP, dose and time course) was “reduced phosphorylation at Ser5 of RNA Poll”, the “p-MED1 levels, dose and time course” value (p-MED1 (p-T1457 MED1); VCaP and LNCaP, standard growth conditions) was “dose- and time-dependent decrease in p-MED1 levels” and the p-MED1 levels (p-MED1 (p-T1457 MED1); VCaP, LNCaP, 22RV1, standard culture conditions, 24 h (THZ1 and LDC also with DHT stimulation)) was “reduced p-MED1 levels”. For the same compound, the “AR target protein expression” value ([1]; LNCaP and VCaP) was “decreased AR target protein expression”, the ERG levels ([1]; VCaP, dose and time-dependent) was “reduction in ERG levels” and the systemic toxicity (VCaP CRPC xenograft; 10 mg/kg b.i.d., four weeks) was “well tolerated with no treatment-related systemic toxicity observed”. For the same compound, the “tumor p-MED1 levels” value (VCaP CRPC xenograft; 10 mg/kg b.i.d., four weeks) was “significant reduction in p-MED1 levels”, the “plasma PSA expression” value (VCaP CRPC xenograft; 10 mg/kg b.i.d., four weeks, vs vehicle treated mice) was “significantly reduced” and the animal weight (VCaP CRPC xenograft; 10 mg/kg twice daily, 4 weeks) was “does not affect the animal weight”. For the same compound, the tumor volume (VCaP CRPC xenograft; castrated mice, 10 mg/kg b.i.d. intraperitoneally, four weeks, vs vehicle) was “dramatic tumor regression”, the “tumor PSA expression (IHC)” value (VCaP CRPC xenograft; [2]) was “loss of PSA expression” and the “tumor apoptosis (cleaved caspase-3)” value (VCaP CRPC xenograft; [2]) was “increased apoptosis”. The tumor necrosis (VCaP CRPC xenograft; [2]) was “necrosis” and the “tumor proliferative activity (KI-67)” value (VCaP CRPC xenograft; [2]) was “reduced proliferative activity”.
